In the supplement of paper PMC10307832:

Experiments:
Experiment in all cases: relative viability (nuclei count vs DMSO), 5 days (fraction); higher = more cells survive
FH535 + Olaparib = compound: CC1=C(C=CC(=C1)[N+](=O)[O-])NS(=O)(=O)C2=C(C=CC(=C2)Cl)Cl [FH535] + O=C(c1cc(Cc2n[nH]c(=O)c3ccccc23)ccc1F)N1CCN(C(=O)C2CC2)CC1 [Olaparib] (partner 8 µM)
Summary of the method: (§1)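 Values are medians from duplicate plates. Each reflects relative viability, defined as the nuclei count of treated wells over that of vehicle wells. Lung cancer cell lines in 1536-well plates were pin-tool dosed one day after seeding with one drug alone or with a fixed anchor-drug dose plus five library-drug doses (not always all listed) in √10 steps, then fixed, stained and imaged at 4× after 5 days.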

FH535 + Navitoclax = compound: CC1=C(C=CC(=C1)[N+](=O)[O-])NS(=O)(=O)C2=C(C=CC(=C2)Cl)Cl [FH535] + CC1(C)CCC(c2ccc(Cl)cc2)=C(CN2CCN(c3ccc(C(=O)NS(=O)(=O)c4ccc(N[C@H](CCN5CCOCC5)CSc5ccccc5)c(S(=O)(=O)C(F)(F)F)c4)cc3)CC2)C1 [Navitoclax] (partner 0.5 µM)
Summary of the method: as §1

FH535 + Tozasertib = compound: CC1=C(C=CC(=C1)[N+](=O)[O-])NS(=O)(=O)C2=C(C=CC(=C2)Cl)Cl [FH535] + Cc1cc(Nc2cc(N3CCN(C)CC3)nc(Sc3ccc(NC(=O)C4CC4)cc3)n2)n[nH]1 [Tozasertib] (partner 0.1 µM)
Summary of the method: as §1

FH535 + Trametinib = compound: CC1=C(C=CC(=C1)[N+](=O)[O-])NS(=O)(=O)C2=C(C=CC(=C2)Cl)Cl [FH535] + CC(=O)Nc1cccc(-n2c(=O)n(C3CC3)c(=O)c3c(Nc4ccc(I)cc4F)n(C)c(=O)c(C)c32)c1 [Trametinib] (partner 0.02 µM)
Summary of the method: as §1

FH535 + OSI-027 = compound: CC1=C(C=CC(=C1)[N+](=O)[O-])NS(=O)(=O)C2=C(C=CC(=C2)Cl)Cl [FH535] + COc1cccc2cc(-c3nc([C@H]4CC[C@H](C(=O)O)CC4)n4ncnc(N)c34)[nH]c12 [OSI-027] (partner 0.5 µM)
Summary of the method: as §1

Cell Line | relative viability (FH535 + Olaparib; first compound 0.04 µM) | relative viability (FH535 + Olaparib; first compound 0.1265 µM) | relative viability (FH535 + Olaparib; first compound 0.4 µM) | relative viability (FH535 + Olaparib; first compound 1.265 µM) | relative viability (FH535 + Navitoclax; first compound 0.04 µM) | relative viability (FH535 + Navitoclax; first compound 0.1265 µM) | relative viability (FH535 + Navitoclax; first compound 0.4 µM) | relative viability (FH535 + Navitoclax; first compound 1.265 µM) | relative viability (FH535 + Tozasertib; first compound 0.04 µM) | relative viability (FH535 + Tozasertib; first compound 0.1265 µM) | relative viability (FH535 + Tozasertib; first compound 0.4 µM) | relative viability (FH535 + Tozasertib; first compound 1.265 µM) | relative viability (FH535 + Trametinib; first compound 0.04 µM) | relative viability (FH535 + Trametinib; first compound 0.1265 µM) | relative viability (FH535 + Trametinib; first compound 0.4 µM) | relative viability (FH535 + Trametinib; first compound 1.265 µM) | relative viability (FH535 + OSI-027; first compound 0.04 µM) | relative viability (FH535 + OSI-027; first compound 0.1265 µM) | relative viability (FH535 + OSI-027; first compound 0.4 µM) | relative viability (FH535 + OSI-027; first compound 1.265 µM)
NCI-H1666 | 0.742 | 0.731 | 0.756 | 0.725 | 0.934 | 0.956 | 1.07 | 0.693 | 0.6 | 0.544 | 0.631 | 0.545 | 0.861 | 0.869 | 0.905 | 0.69 | 0.866 | 0.843 | 0.777 | 0.705
NCI-H1734 | 0.539 | 0.715 | 0.635 | 0.613 | 0.802 | 0.902 | 0.86 | 0.735 | – | 0.26 | 0.263 | 0.297 | 0.574 | 0.671 | 0.656 | 0.558 | – | 0.633 | 0.55 | 0.503
NCI-H1755 | 0.867 | 0.857 | 0.8 | 0.869 | 0.996 | 0.997 | 1.01 | 0.79 | 0.569 | 0.533 | 0.515 | 0.525 | 0.755 | 0.809 | 0.725 | 0.739 | 0.552 | 0.675 | 0.683 | 0.629
NCI-H1793 | 0.801 | 0.94 | 0.826 | 0.454 | 0.49 | 0.573 | 0.469 | 0.325 | 0.305 | 0.297 | 0.353 | 0.213 | 0.4 | 0.421 | 0.425 | 0.399 | 0.295 | 0.225 | 0.306 | 0.244
NCI-H1915 | 0.208 | 0.286 | 0.242 | 0.236 | 0.745 | 0.822 | 0.777 | 0.69 | 0.38 | 0.418 | 0.429 | 0.356 | 0.312 | 0.324 | 0.296 | 0.247 | 0.542 | 0.683 | 0.552 | 0.525
NCI-H1944 | 0.382 | 0.453 | 0.431 | 0.308 | – | 1.01 | 0.975 | 0.924 | 0.237 | 0.265 | 0.234 | 0.236 | 0.405 | 0.42 | 0.398 | 0.325 | 0.35 | 0.449 | 0.364 | 0.365
NCI-H1975 | 0.868 | 0.877 | 0.718 | 0.624 | 1.16 | 1.32 | 0.91 | 0.934 | 0.654 | 0.726 | 0.602 | 0.635 | 0.329 | 0.232 | 0.287 | 0.329 | 0.721 | 0.705 | 0.584 | 0.534
NCI-H1993 | 0.941 | 1.03 | 0.983 | 0.581 | 0.946 | 1.01 | 0.838 | 0.695 | 0.53 | 0.596 | 0.551 | 0.472 | 0.57 | 0.566 | 0.496 | 0.52 | 0.556 | 0.522 | 0.531 | 0.617
NCI-H2009 | 0.666 | 0.652 | 0.662 | 0.552 | 1.11 | 1.13 | 1.09 | 0.847 | 0.777 | 0.806 | 0.747 | 0.631 | 0.306 | 0.316 | 0.251 | 0.24 | 0.58 | 0.627 | 0.566 | 0.486
NCI-H2023 | 0.48 | 0.5 | 0.474 | 0.368 | 1 | 1 | 1.04 | 0.804 | 0.296 | 0.371 | 0.354 | 0.301 | 0.542 | 0.641 | 0.598 | 0.44 | 0.362 | 0.406 | 0.385 | 0.331
NCI-H2085 | 0.818 | 0.713 | 0.749 | 0.571 | 1.1 | 1.05 | 1.05 | 0.846 | 0.845 | 0.784 | 0.726 | 0.522 | 0.567 | 0.624 | 0.503 | 0.403 | 0.644 | 0.709 | 0.602 | 0.508
NCI-H2087 | 0.391 | 0.553 | 0.516 | 0.378 | 0.811 | 1.11 | 0.947 | 0.518 | 0.252 | 0.223 | 0.276 | 0.212 | 0.243 | 0.152 | 0.182 | 0.157 | 0.522 | 0.454 | 0.478 | 0.421
NCI-H2126 | 0.928 | 0.896 | 0.822 | 0.525 | 0.779 | 0.875 | 0.778 | 0.628 | 0.809 | 0.823 | 0.832 | 0.583 | 0.541 | 0.624 | 0.535 | 0.392 | 0.72 | 0.742 | 0.692 | 0.532
NCI-H2170 | 0.624 | 0.585 | 0.49 | 0.389 | 0.612 | 0.548 | 0.597 | 0.54 | 0.674 | 0.772 | 0.69 | 0.697 | 0.964 | 0.883 | 0.752 | 0.706 | 0.72 | 0.779 | 0.619 | 0.554
NCI-H2228 | 0.783 | 0.886 | 0.709 | 0.698 | 0.826 | 1.1 | 0.841 | 0.728 | 0.238 | 0.244 | 0.305 | 0.215 | 0.376 | 0.368 | 0.464 | 0.413 | 0.487 | 0.71 | 0.658 | 0.522
